In patent US12285407B2, “Bis-indolylmethane derivatives and uses thereof” (The University of The West Indies, priority 2018, dated 2025):

What was measured:
[1] = test system: Salmonella typhimurium ATCC 14028; assay: Broth microdilution MIC of SP-BIMs; assay type: cell-based; conditions: Salmonella enterica, read-out: MIC Salmonella tvpkimurium ATCC 14028
Text: Reference microorganisms used in this study included: Bacillus cereus (American Type Culture Collection (ATCC) No. 14579), Streptococcus pyogenes (ATCC No. 19615), Staphylococcus aureus (ATCC No. 12600), Enterococcus faecium (ATCC No. 19434), Corynebacterium diphtheriae (ATCC No. 27010), Escherichia coli (ATCC No. 35218), Salmonella typhimurium (ATCC No. 14028), Pseudomonas aeruginosa (ATCC No. 27853), Klebsiella pneumoniae (ATCC No. 49472), and Candida albicans (ATCC No. 22972).
Prior to each experiment, cultures were streaked onto clean BHI agar plates and incubated at 35° C. for 24 hours. Colonies of the respective cultures were selected and inoculated in phosphate buffer saline (pH 7.5) to a 0.5 McFarland turbidity standard (equivalent to 10^8 CFU mL^−1). The bacterial suspension was then diluted 1:100 in cation adjusted Mueller Hinton Broth (ca-MHB) (Oxoid Ltd, Basingstoke, Hampshire, England).
Stock solutions (50 mg mL^−1) of the SP-BIM test compounds were prepared in DMSO and stored at 4° C. Working preparations of each compound was made up to 1 mg/mL in sterile deionized water with a final DMSO concentration of 10%.
To assess the antibiotic properties of the library of SP-BIMs, the broth microdilution assay was performed in 96-well microplates according to the Clinical and Laboratory Standards Institute 2014 Guidelines (CLSI 2014). The broth microdilution assay was used to determine the minimum inhibitory concentration (MIC). […] Bacterial cells (˜10^6 CFU mL^−1) were inoculated into cation adjusted-Mueller Hinton broth containing the test compound in a twofold serial dilution ranging between 250 μg mL^−1 and 0.02 μg mL^−1. Plates were incubated at 35° C. for 18 hours after which 50 μL of 5% resazurin solution was added to each well. Resazurin is a blue dye which, upon reduction by living cells, turns to a pink resorufin product. Plates were shaken for 1 hour after the addition of the dye. The MIC was recorded as the well with the lowest concentration of test compound where no color change was observed.

[2] = test system: Streptococcus pyogenes ATCC 19615; assay: Broth microdilution MIC of SP-BIMs; assay type: cell-based; conditions: ATCC19615, SP-BIM alone, read-out: MIC Streptococcus pyogenes ATCC 19615
[3] = test system: Staphylococcus aureus ATCC 12600; assay: Broth microdilution MIC of SP-BIMs; assay type: cell-based; conditions: ATCC12600, SP-BIM alone, read-out: MIC Staphylococcus aureus ATCC 12600
[4] = test system: Escherichia coli ATCC 35218; assay: Broth microdilution MIC of SP-BIMs; assay type: cell-based; conditions: ATCC35218, SP-BIM alone, read-out: MIC Escherichia coli ATCC 35218
[5] = test system: Candida albicans ATCC 22972; assay: Broth microdilution MIC of SP-BIMs; assay type: cell-based; conditions: ATCC22972, SP-BIM alone, read-out: MIC Candida albicans ATCC 22972
[6] = test system: Enterococcus faecium ATCC 19434; assay: Broth microdilution MIC of SP-BIMs; assay type: cell-based; conditions: ATCC19434, SP-BIM alone, read-out: MIC Enterococcus faecium ATCC 19434
[7] = test system: sheep erythrocyte; assay: Hemotoxicity (hemolysis assay); assay type: cell-based; conditions: 2% sheep erythrocyte solution; SP-BIMs 6, 11 and 18 at concentrations between 125-16 μg mL^−1
Experimental: Hemotoxicity of the SP-BIMs were assessed following Wauford, “Hemolysis Assay”, protocols.io/view/hemolysis-assay-fxkbpkw (2016). Briefly, twofold serial dilutions of each test SP-BIM were added to 2% sheep erythrocyte solution and incubated for 30 minutes at 37° C. Samples were centrifuged at 2500 g for 5 minutes and the absorbance of the supernatants measured at 541 nm. Values were represented as percent hemolysis using freeze thaw cells as 100% lysis.

[8] = test system: Pseudomonas aeruginosa ATCC 27853; assay: Broth microdilution MIC of SP-BIMs; assay type: cell-based; conditions: ATCC27853, SP-BIM alone, read-out: MIC Pseudomonas aeruginosa ATCC 27853
[9] = test system: Bacillus cereus ATCC 14579; assay: Broth microdilution MIC of SP-BIMs; assay type: cell-based; conditions: ATCC14579, SP-BIM alone, read-out: MIC Bacillus cereus ATCC 14579
[10] = test system: Corynebacterium diphtheriae ATCC 27010; assay: Broth microdilution MIC of SP-BIMs; assay type: cell-based; conditions: ATCC27010, SP-BIM alone, read-out: MIC Corynebacterium diphtheriae ATCC 27010
[11] = test system: Klebsiella pneumoniae ATCC 49472; assay: Broth microdilution MIC of SP-BIMs; assay type: cell-based; conditions: ATCC49472, SP-BIM alone, read-out: MIC Klebisella pneumoniae ATCC 49472
[12] = test system: Streptococcus pneumoniae; assay: Adjuvant broth microdilution (antibiotic MIC with SP-BIM at 50 μg/mL); assay type: cell-based; conditions: Streptococcus pneumoniae, Streptococcus pneumonia, SP-BIM at 50 μg mL^−1
[13] = test system: Gram-negative bacteria; assay: Adjuvant broth microdilution; assay type: cell-based; conditions: SP-BIM at 50 μg mL^−1
Experimental: To each well, the SP-BIM to be tested was added to a final concentration of 50 μg mL^−1. […] SP-BIMs were assessed as potential adjuvants based on their ability to reduce the MIC of the antibiotic against respective pathogen.

[14] = test system: Bacillus cereus; assay: Checkerboard synergy (FICI) of antibiotics with SP-BIM; assay type: cell-based; conditions: SP-BIM 9 alone, one value per antibiotic's checkerboard, read-out: MIC SP-BIM 9 only
[15] = test system: reference pathogen strains; assay: Checkerboard synergy study, summary over pathogens; assay type: cell-based; conditions: Gram-positive pathogens
[16] = test system: Klebsiella pneumoniae; assay: Checkerboard synergy (FICI) of antibiotics with SP-BIM; assay type: cell-based; conditions: SP-BIM 9 alone, one value per antibiotic's checkerboard, read-out: MIC SP-BIM 9 only
[17] = test system: Staphylococcus aureus; assay: as above; assay type: cell-based
[18] = test system: Streptococcus pneumoniae; assay: as above; assay type: cell-based; conditions: Streptococcus pneumoniae
[19] = test system: Enterococcus faecium; assay: as above; assay type: cell-based
[20] = test system: MRSA HS 10132; assay: Systemic non-lethal MRSA infection in mice (organ MRSA load); assay type: in vivo
[21] = test system: Escherichia coli; assay: Checkerboard synergy (FICI) of antibiotics with SP-BIM; conditions: read-out: MIC SP-BIM 9 only, Escherichia coli, SP-BIM 9 alone, one value per antibiotic's checkerboard
[22] = read-out: MIC of Kanamvcin with SP-BIM
[23] = read-out: MIC of Vancomvcin with SP-BIM
[24] = MRSA, checkerboard with SP-BIM 9
[25] = ampicillin and SP-BIM 9 at 5 mg kg^−1
[26] = ampicillin and SP-BIM 9 at 10 mg kg^−1

Oc1ccccc1C(c1c[nH]c2ccccc12)c1c[nH]c2ccccc12 [SP-BIM 11, bis(indol-3-yl)-2-hydroxyphenylmethane]
MIC [1]: 250 µg/mL
MIC [2]: > 250 µg/mL
MIC [3]: > 250 µg/mL
MIC [4]: > 250 µg/mL
MIC [5]: 250 µg/mL
MIC [6]: > 250 µg/mL
hemotoxicity [7]: very hemotoxic
MIC [8]: 250 µg/mL
MIC [9]: > 250 µg/mL
MIC [10]: > 250 µg/mL
MIC [11]: > 250 µg/mL
MIC [12, 22]: 125 µg/mL
MIC [12, 23]: 1 µg/mL

O=Cc1cccc(C(c2c[nH]c3ccccc23)c2c[nH]c3ccccc23)c1 [SP-BIM 6, 3-(di(1H-indol-3-yl)methyl)benzaldehyde]
MIC [1]: 250 µg/mL
MIC [2]: > 250 µg/mL
MIC [3]: > 250 µg/mL
MIC [4]: > 250 µg/mL
potentiating activity for Gram-negative bacteria [13]: No potentiating activity was observed
MIC [5]: 250 µg/mL
MIC [6]: > 250 µg/mL
hemotoxicity [7]: very hemotoxic
MIC [8]: 250 µg/mL
MIC [9]: > 250 µg/mL
MIC [10]: > 250 µg/mL
MIC [11]: > 250 µg/mL
MIC [12, 22]: 4 µg/mL
MIC [12, 23]: 0.5 µg/mL

Oc1cc(Br)ccc1C(c1c[nH]c2ccccc12)c1c[nH]c2ccccc12 [SP-BIM 15, 5-bromo-2-(di(1H-indol-3-yl)methyl)phenol]
MIC [1]: 250 µg/mL
MIC [2]: 125 µg/mL
MIC [3]: > 250 µg/mL
MIC [4]: > 250 µg/mL
potentiating activity for Gram-negative bacteria [13]: No potentiating activity was observed
MIC [5]: 250 µg/mL
MIC [6]: 125 µg/mL
MIC [8]: 250 µg/mL
MIC [9]: 125 µg/mL
MIC [10]: > 250 µg/mL
MIC [11]: > 250 µg/mL
MIC [12, 22]: 4 µg/mL
MIC [12, 23]: 0.2 µg/mL

COc1ccc(C(c2c[nH]c3ccccc23)c2c[nH]c3ccccc23)cc1 [SP-BIM 18, bis(indol-3-yl)-4-methoxyphenylmethane]
MIC [1]: 250 µg/mL
MIC [2]: > 250 µg/mL
MIC [3]: > 250 µg/mL
MIC [4]: > 250 µg/mL
MIC [5]: 250 µg/mL
MIC [6]: > 250 µg/mL
hemotoxicity [7]: very hemotoxic
MIC [8]: 250 µg/mL
MIC [9]: > 250 µg/mL
MIC [10]: > 250 µg/mL
MIC [11]: > 250 µg/mL
MIC [12, 22]: 125 µg/mL
MIC [12, 23]: 1 µg/mL

Nc1ccc(C(c2c[nH]c3ccccc23)c2c[nH]c3ccccc23)cc1 [SP-BIM 10, 4-(di(1H-indol-3-yl)methyl)aniline]
MIC [1]: 250 µg/mL
MIC [2]: > 250 µg/mL
MIC [3]: > 250 µg/mL
MIC [4]: > 250 µg/mL
potentiating activity for Gram-negative bacteria [13]: No potentiating activity was observed
MIC [5]: 250 µg/mL
MIC [6]: > 250 µg/mL
MIC [8]: 250 µg/mL
MIC [9]: > 250 µg/mL
MIC [10]: > 250 µg/mL
MIC [11]: > 250 µg/mL
MIC [12, 22]: 4 µg/mL
MIC [12, 23]: 0.5 µg/mL

Oc1cccc(C(c2c[nH]c3ccccc23)c2c[nH]c3ccccc23)c1 [SP-BIM 9, 3-(di(1H-indol-3-yl)methyl)phenol]
MIC [1]: 250 µg/mL
MIC [2]: > 250 µg/mL
MIC [3]: > 250 µg/mL
MIC [4]: > 250 µg/mL
MIC [14]: > 250 µg/mL
MIC [5]: 250 µg/mL
FICI with most of the antibiotics [15]: ≤ 0.5
MIC [16]: ≥ 250 µg/mL
MIC [6]: > 250 µg/mL
MIC of aztreonam in combination with 32 μg mL^−1 of SP-BIM 9 ([17]; MRSA, checkerboard): 8 µg/mL
effect on MIC of trimethoprim [17, 24]: an increase in the MIC was observed
reduction of MICs of all the antibiotics except trimethoprim [17, 24]: at least 4 fold
MIC ([17]; Staphylococcus aureus, SP-BIM 9 alone, one value per antibiotic's checkerboard, read-out: MIC SP-BIM 9 only): > 250 µg/mL
MIC [8]: 250 µg/mL
MIC [9]: > 250 µg/mL
MIC ([18]; Streptococcus pneumonia (title: Streptococcus pyogenes), SP-BIM 9 alone, one value per antibiotic's checkerboard, read-out: MIC SP-BIM 9 only): > 250 µg/mL
effect on MIC of erythromycin ([18]; checkerboard with SP-BIM 9): no effect was observed
lowering of the MIC of the antibiotics ([18]; checkerboard with SP-BIM 9): at least 4 fold
MIC of vancomycin with 63 μg mL^−1 SP-BIM 9 ([19]; Enterococcus faecium strain highly resistant to vancomycin): reduced to susceptible levels
MIC ([19]; Enterococcus faecium, SP-BIM 9 alone, one value per antibiotic's checkerboard, read-out: MIC SP-BIM 9 only): ≥ 250 µg/mL
MRSA counts in the liver ([20]; SP-BIM 9 only 5 mg kg^−1): 3911 CFU g^−1
MRSA load in the spleen ([20]; SP-BIM 9 only 5 mg kg^−1): 7327 CFU g^−1
MRSA counts in the liver ([20]; SP-BIM 9 only 10 mg kg^−1): 2861 CFU g^−1
MRSA load in the spleen ([20]; SP-BIM 9 only 10 mg kg^−1): 5800 CFU g^−1
MRSA counts in the liver [20, 25]: 167 CFU g^−1
MRSA load in the spleen [20, 25]: 288 CFU g^−1
MRSA counts in the liver [20, 26]: 189 CFU g^−1
MRSA load in the spleen [20, 26]: 211 CFU g^−1
MIC [10]: > 250 µg/mL
MIC [11]: > 250 µg/mL
MIC [21]: ≥ 250 µg/mL
MIC [12, 22]: 4 µg/mL
MIC [12, 23]: 0.2 µg/mL
